# Measurements from ChEMBL document CHEMBL1151278, “Hygrocins a and B, naphthoquinone macrolides from Streptomyces hygroscopicus” (2005).
# Legend:
# Assay type in all cases: functional
# Staphylococcus aureus [1] = assay: Antibacterial activity against Staphylococcus aureus 2999 by NCCLS M27A method
# Streptococcus pneumoniae [2] = assay: Antibacterial activity against Streptococcus pneumoniae by NCCLS M27A method
# Enterococcus faecalis [3] = assay: Antibacterial activity against Streptococcus faecalis 1362/3 by NCCLS M27A method
# Haemophilus influenzae [4] = assay: Antibacterial activity against Haemophilus influenzae by NCCLS M27A method
# Neisseria gonorrhoeae [5] = assay: Antibacterial activity against Neisseria gonorrhoeae by NCCLS M27A method
# Escherichia coli [6] = assay: Antibacterial activity against Escherichia coli 1074 by NCCLS M27A method
# Candida albicans = assay: Antifungal activity against Candida albicans by NCCLS M27A method
# Aspergillus fumigatus = assay: Antifungal activity against Aspergillus fumigatus by NCCLS M27A method
# Aspergillus niger = assay: Antifungal activity against Aspergillus niger by NCCLS M27A method
# Staphylococcus aureus [7] = assay: Antibacterial activity against Staphylococcus aureus 2999
# Streptococcus pneumoniae [8] = assay: Antibacterial activity against Streptococcus pneumoniae
# Enterococcus faecalis [9] = assay: Antibacterial activity against Streptococcus faecalis 1362/3
# Haemophilus influenzae [10] = assay: Antibacterial activity against Haemophilus influenzae
# Neisseria gonorrhoeae [11] = assay: Antibacterial activity against Neisseria gonorrhoeae
# Escherichia coli [12] = assay: Antibacterial activity against Escherichia coli 1074
MIC (Staphylococcus aureus [7]),MIC (Streptococcus pneumoniae [8]),MIC (Enterococcus faecalis [9]),MIC (Haemophilus influenzae [10]),MIC (Neisseria gonorrhoeae [11]),MIC (Escherichia coli [12]),SMILES,MIC (Staphylococcus aureus [1]),MIC (Streptococcus pneumoniae [2]),MIC (Enterococcus faecalis [3]),MIC (Haemophilus influenzae [4]),MIC (Neisseria gonorrhoeae [5]),MIC (Escherichia coli [6]),MIC (Candida albicans),MIC (Aspergillus fumigatus),MIC (Aspergillus niger)
,,,,,,CCC1/C=C/[C@H](O)[C@H](C)OC(=O)/C(C)=C\CC(=O)NC2=CC(=O)c3c(cc(C)c(O)c3C(=O)CC1)C2=O (some centres undefined) [HYGROCIN A],128 µg/mL,16 µg/mL,128 µg/mL,128 µg/mL,64 µg/mL,128 µg/mL,128 µg/mL,16 µg/mL,32 µg/mL
,,,,,,CCC1/C=C/[C@H](O)[C@H](C)OC(=O)[C@@]2(C)C=CC(=O)NC3=C2C(=O)c2c(cc(C)c(O)c2C(=O)CC1)C3=O (some centres undefined) [HYGROCIN B],128 µg/mL,128 µg/mL,128 µg/mL,128 µg/mL,128 µg/mL,128 µg/mL,128 µg/mL,32 µg/mL,64 µg/mL
0.01 µg/mL,0.1 µg/mL,16 µg/mL,0.01 µg/mL,0.1 µg/mL,128 µg/mL,CO[C@H]1/C=C/O[C@@]2(C)Oc3c(C)c(O)c4c(c3C2=O)C(=O)C=C(NC(=O)/C(C)=C\C=C\[C@H](C)[C@H](O)[C@@H](C)[C@@H](O)[C@@H](C)[C@H](OC(C)=O)[C@@H]1C)C4=O [RIFAMYCIN S],,,,,,,,,
